Results taken from patent US5276049A, “Cyclic urea derivatives, pharmaceutical compositions containing these compounds and methods of using the same” (Dr. Karl Thomae GmbH, priority 1991, dated 1994).
Counter-ions that a name gives are not always drawn.

How the values were obtained:
[1] = system: thrombocyte aggregation in platelet-rich plasma; test: Antithrombotic effect: collagen-induced thrombocyte aggregation in platelet-rich plasma (Born and Cross); type: cell-based; conditions: human platelet-rich plasma, 10 minutes preincubation at 37° C., read-out: Inhibition of platelet aggregation EC50
Method: 2. Antithrombotic Effect Method: The thrombocyte aggregation was measured in platelet-rich plasma from healthy test subjects using the Born and Cross method (J. Physiol. 170: 397 (1964)). In order to inhibit coaggulation the blood was mixed with 3.14% sodium citrate in a ratio by volume of 1:10. Collagen-induced aggregation: The decrease in the optical density of the platelet suspension was measured photometrically and recorded after the addition of the aggregation-initiating substance. The speed of aggregation was concluded from the angle of inclination of the density curve. The point on the curve at which there was maximum transmittance was used to calculate the optical density. The quantity of collagen used was as little as possible but sufficient to give an irreversible reaction curve. Standard commercial collagen produced by Hormonchemie of Munich was used. Before the addition of collagen the plasma was incubated with the substance for 10 minutes at 37° C. From the measurements obtained, an EC50 was determined graphically, relating to a 50% change in the optical density in terms of inhibiting aggregation.

Human Thrombocytes = test: Fibrinogen Binding to Human Thrombocytes (I125-fibrinogen, gel-filtered platelets); conditions: inhibition of I125-fibrinogen binding to gel-filtered human platelets, ADP, 20 minutes, ambient temperature; read-out: Fibrinogen Binding test IC50
Method: 1. Fibrinogen Binding to Human Thrombocytes Blood obtained by puncture of an antecubital vein was anticoagulated with trisodium citrate (final concentration: 13 mM) and centrifuged for 10 minutes at 170 *g. The supernatant platelet-rich plasma was placed on a Sepharose 2B column (Pharmacia) and eluted with a solution of 90 mM common salt, 14 mM trisodium citrate, 5 mM glucose and 50 mM tris(hydroxymethyl)aminomethane, adjusted to pH 7.4. The gel-filtered platelets (GFP) appearing in front of the plasma proteins were used for the binding tests. 50 μl of a 60 mM calcium chloride solution, 50 μl of a 0.6 mM adenosine diphosphate solution, 100 μl of substance solution or solvent and 50 μl of fibrinogen solution (containing 3 μg I125-fibrinogen) were added to 750 μl of GFP and incubated for 20 minutes at ambient temperature. The non-specific binding was measured in the presence of 3 mg/ml of cold fibrinogen. 900 μl of the incubate were carefully pipetted onto 250 μl of silicon oil (AP 38: AR 20, 1:2 v/v, Wacker Chemie) in Eppendorf vessels and centrifuged for 2 minutes at 10,000 *g. The aqueous supernatant and some of the oil were removed, the tip of the vessel with the platelet pellet was cut off and the quantity of bound fibrinogen was measured in a gamma-counter. The concentration of substance which inhibited fibrinogen binding by 50% was calculated from a series of concentrations and given as the IC50.

Compound | EC50 [1] [nM] | IC50 (Human Thrombocytes) [nM]
N=C(N)c1ccc(-c2ccc(N3CCCN(CC(=O)O)C3=O)cc2)cc1 [1(5), 1-(4'-amidino-4-biphenylyl)-3-carboxymethyl-3,4,5,6-tetrahydro-1H-pyrimidin-2-one] | 32000 | 6100
N=C(N)c1ccc(N2CCN(c3ccc(S(=O)(=O)CC(=O)O)cc3)C2=O)cc1 [1(50), 1-(4-amidino-phenyl)-3-(4-carboxymethylsulphonylphenyl)-imidazolidin-2-one] | 290 | 45
N=C(N)c1ccc(-c2cn(-c3ccc(CCC(=O)O)cc3)c(=O)n2-c2ccccc2)cc1 [1(94), 4-(4-amidino-phenyl)-1-[4-(2-carboxy-ethyl)-phenyl]-3-phenyl-3H-imidazol-2-one hydrochloride] | 400 | 310
COC(=O)C[S+]([O-])c1ccc(N2CCN(c3ccc(C(=N)N)cc3)C2=O)cc1 (centres unmarked) [18(5), 1-(4-amidino-phenyl)-3-(4-methoxycarbonylmethyl-sulphinyl-phenyl)-imidazolidin-2-one] | 120 | 420
CCc1nn(-c2ccc(C(=N)N)cc2)c(=O)n1-c1ccc(CCC(=O)OC)cc1 [2(119), 2-(4-amidino-phenyl)-5-ethyl-4-[4-(2-methoxycarbonyl-ethyl)-phenyl]-4H-1,2,4-triazol-3-one hydrochloride] | 40 | 280
CC(N)c1ccc(N2CCN(c3ccc(CCC(=O)O)cc3)C2=O)cc1 (centres unmarked) [1(153), 1-[4-(1-amino-ethyl)-phenyl]-3-[4-(2-carboxy-ethyl)-phenyl]-imidazolidin-2-one] | 380 | 150
COC(=O)CCc1ccc(-n2ccn(-c3ccc(C(=N)NC(=O)OC)cc3)c2=O)cc1 [5(8), 1-(4-methoxycarbonylamidino-phenyl)-3-[4-(2-methoxycarbonyl-ethyl)-phenyl]-3H-imidazol-2-one] | 31000 | 8000
N=C(N)c1ccc(N2CCN(c3ccc(SCC(=O)O)cc3)C2=O)cc1 [1(48), 1-(4-amidino-phenyl)-3-(4-carboxymethylthiophenyl)-imidazolidin-2-one] | 1100 | 210
NC1CCc2cc(N3CCN(c4ccc(CCC(=O)O)cc4)C3=O)ccc21 (centres unmarked) [1(154), 1-(1-amino-5-indanyl)-3-[4-(2-carboxy-ethyl)-phenyl] -imidazolidin-2-one] | 310 | 28
COC(=O)COc1ccc(N2CCN(c3ccc(CN)cc3)C2=O)cc1 [Example 8, 1-(4-Aminomethyl-phenyl)-3-(4-methoxycarbonylmethyloxy-phenyl)-imidazolidin-2-one hydrochloride] | 600 | 750
COC(=O)CCc1ccc(-n2cnn(-c3ccc(C(=N)N)cc3)c2=O)cc1 [2(123), 2-(4-amidino-phenyl)-4-[4-(2-methoxycarbonyl-ethyl)-phenyl]-4H-1,2,4-triazol-3-one hydrochloride] | 70 | 3100
COC(=O)CCn1cc(-c2ccc(-c3ccc(C(=N)N)cc3)cc2)[nH]c1=O [2(104), 4-(4'-amidino-4-biphenylyl)-1-(2-methoxycarbonyl-ethyl)-3H-imidazol-2-one hydrochloride] | 2100 | 7100
COC(=O)CCc1ccc(N2C(=O)CN(c3ccc(C(=N)NC(=O)OC)cc3)C2=O)cc1 [5(13), 1-(4-methoxycarbonylamidino-phenyl)-3-[4-(2-methoxycarbonyl-ethyl)-phenyl]-imidazolidin-2,4-dione] | 24000 | > 10000
N=C(N)c1ccc(-c2ccc(N3CCN(CCC(=O)O)C3=O)cc2)cc1 [1(1), 1-(4'-amidino-4-biphenylyl)-3-(2-carboxy-ethyl)-imidazolidin-2-one] | 1500 | 45
COC(=O)CNCCN1CCN(c2ccc(C(=N)N)cc2)C1=O [2(75), 1-(4-amidino-phenyl)-3-(2-methoxycarbonylmethylamino-ethyl)-imidazolidin-2-one hydrochloride-acetate] | 27000 | 8000
N=C(N)c1ccc(-c2ccc(-c3cn(CCC(=O)O)c(=O)n3-c3ccccc3)cc2)cc1 [1(119), 4-(4'-amidino-4-biphenylyl)-1-(2-Carboxy-ethyl)-3-phenyl-3H-imidazol-2-onehydrochloride] | 730 | 210
N=C(N)c1ccc(-c2ccc(-c3cn(CCC(=O)O)c(=O)[nH]3)cc2)cc1 [1(117), 4-(4'-amidino-4-biphenylyl)-1-(2-carboxy-ethyl)-3H-imidazol-2-one hydrochloride] | 5400 | 230
NCc1ccc(N2CCN(c3ccc(CCC(=O)O)cc3)C2=O)cc1 [1(59)] | 350 | 150
N=C(N)c1ccc(N2CCN(CCCCC(=O)O)C2=O)cc1 [1(77), -(4-amidino-phenyl)-3-(4-carboxy-butyl)-imidazolidin-2-one] | 8000 | 4900
N=C(N)c1ccc(-c2ccc(C3CN(CCC(=O)O)C(=O)N3c3ccccc3)cc2)cc1 (centres unmarked) [4(13), 4-(4'-amidino-4-biphenylyl)-1-(2-carboxy-ethyl)-3-phenyl-imidazolidin-2-one hydrochloride] | 310 | 32
COC(=O)CN1CCCN(c2ccc(-c3ccc(C(=N)N)cc3)cc2)C1=O [2(5), 1-(4'-amidino-4-biphenylyl)-3-methoxycarbonylmethyl-3,4,5,6-tetrahydro-1H-pyrimidin-2-one hydrochloride] | 25000 | 5600
CCOC(=O)CCc1ccc(-n2ccn(-c3ccc(C(=N)NC(=O)OCC)cc3)c2=O)cc1 [Example 5, 1-(4-Ethoxycarbonylamidino-phenyl)-3-[4-(2-ethoxycarbonyl-ethyl)-phenyl]-3H-imidazol-2-one] | 32000 | 9300
Cc1nn(-c2ccc(C(=N)N)cc2)c(=O)n1-c1ccc(CCC(=O)OCC(C)C)cc1 [11(12), 2-(4-amidino-phenyl)-4-[4-(2-isobutyloxycarbonyl-ethyl)-phenyl]-5-methyl-4H-1,2,4-triazol-3-one hydrochloride] | 30 | 43
N=C(N)c1ccc(-c2ccc(N3CCN(CC(=O)O)C3=O)cc2)cc1 [Example 1, 1-(4'-Amidino-4-biphenylyl)-3-carboxymethyl-imidazolidin-2-one] | 9900 | 1800
N=C(N)c1ccc(N2CCN(c3ccc([S+]([O-])CC(=O)O)cc3)C2=O)cc1 (centres unmarked) [1(49), 1-(4-amidino-phenyl)-3-(4-carboxymethylsulphinylphenyl)-imidazolidin-2-one] | 140 | 26
N=C(N)c1ccc(-n2cnn(-c3ccc(CCC(=O)O)cc3)c2=O)cc1 [1(146), 4-(4-amidino-phenyl)-2-[4-(2-carboxy-ethyl)-phenyl]-4H-1,2,4-triazol-3-one] | 50 | 6.5
COC(=O)c1ccc(CCN2CCN(c3ccc(C(=N)N)cc3)C2=O)cc1 [2(48), 1-(4-amidino-phenyl)-3-[2-(4-methoxycarbonyl-phenyl)-ethyl]-imidazolidin-2-one] | > 100000 | 22000
COC(=O)CCN1CCN(C2CCN(c3ccc(C(=N)N)cc3)CC2)C1=O [4(11), 1-[1-(4-amidino-phenyl)-4-piperidinyl]-3-(2-methoxycarbonyl-ethyl)-imidazolidin-2-one hydrochloride] | 2300 | 45000
